Entries after “also recorded” stand apart in the source; their conditions may differ. Starred links: 1 amine or outer side, 2 acyl side, 3 side chain; linkers in the order of their positions; H or OH if unused. Positions of bridges follow the written chain, without caps; N, C: chain ends. Non-standard residues stand in square brackets, D forms with d. Residues, ends and D or L forms follow the SMILES beside them. Chains are numbered I, II in the order given. Actinocin(9to1) = Cc1c2oc3c(C)ccc(C(=O)[*:1])c3nc-2c(C(=O)[*:2])c(N)c1=O; NMeV = CN[C@H](C(=O)O)C(C)C; Sar = CNCC(=O)O
Experiments:
DRGs [1] = assay: Campenot chamber local axon degeneration, anti-NGF in axon compartment; format: cell-based, mouse; conditions: for Axon Compartment (axon protected when inhibitor is in axon compartment) / Cell Body Compartment (axon protected when inhibitor is in cell body compartment): anti-NGF in axon compartment, 28 hours
Protocol: Teflon dividers (Tyler Research) were cleaned by washing in water and wiping them clean of any residual grease. Dividers were then soaked in Nochromix (Godax Laboratories)/sulfuric acid overnight, rinsed five times in distilled and autoclaved water (SQ water), boiled for 30 minutes, and then air-dried before use.
Mouse laminin (5 μg/ml in sterile filtered water; Invitrogen) was added to PDL coated 35 mm dishes (BD Biosciences) and they were incubated for 1 hour at 37° C., followed by two rinses in SQ water. The dishes were vacuum-dried and then air-dried in a laminar flow hood for 15 minutes. Prepared dishes were then scored with a pin rake (Tyler Research). […] High vacuum grease (VWR) was added to each Teflon divider under a dissection scope. The laminin coated PDL dishes were inverted and dropped onto the Teflon divider, with additional pressure added by use of a toothpick in the non-track-containing regions. Dishes were incubated for 1 hour at 37° C. Five hundred microliters of NBM+MC (50 ng/ml NGF) solution was added to each of the side compartments, and a grease barrier was added in front of the center cell slot.
Free E13.5 spinal cords were dissected from mouse embryos and placed into NBM+MC (25 ng/ml NGF) solution. DRGs were detached from the spinal cord with a tungsten needle. An NBM+MC-lubricated P200 pipette was used to move DRGs into a 1.5 ml tube. DRGs were pelleted with a tabletop centrifuge for 30 seconds. The supernate was discarded and 0.05% Trypsin/EDTA (cold) was added. The pellet was resolubilized with a pipette and incubated at 37° C. for 15 minutes with constant agitation (650 RPM). The sample was again centrifuged and the supernate discarded. The pellet was resuspended in warm NBM+MC (50 ng/ml NGF) solution and triturated with a flamed glass pipette 20 times, followed by trituration with a fire-bored glass pipette another 20 times. The samples were again centrifuged and the resulting pellets were resuspended in 0.5 ml NBM+MC (50 ng/ml NGF) solution. The cells were diluted to a final concentration of 2.5×10^6 cells/ml. The cell suspensions were loaded into a 1 ml syringe with a 22 gauge needle. The center slot of the Campenot divider was filled using the syringe (to a volume of at least 50 μl). The Campenot chamber was incubated overnight at 37° C. 2.5 ml NGF+MC (50 ng/ml NGF) solution was added to the center compartment and the grease gate was removed. The outer medium (cell body compartment) was replaced after three days with 2.5 ml NBM+MC medium (with 25 ng/ml NGF). After five days in culture, one distal compartment was washed three times with warmed NBM+MC (no NGF) solution. After the third wash, 500 μl NBM+MC (no NGF) solution was added to the axon compartment in combination with either 0.5% DMSO or an inhibitor. The cell body compartment was replaced with 2.5 ml NBM+MC medium (with 25 ng/ml NGF) containing either 0.5% DMSO or inhibitor.
After 28 hours of anti-NGF antibody treatment, 8% PFA/30% sucrose solution (see above) was added directly to the culture medium at a 1:1 dilution and incubated for 30 minutes. The Teflon divider was removed after the first 15 minutes of addition. The system was washed once with 2.5 ml PBS prior to immunostaining. Neurons were blocked in 5% BSA/0.2% triton in PBS for 30 minutes. The primary antibody Tuj1 (Covance) was added to a final dilution of 1:1000 in PBS containing 2% BSA and incubated overnight at 4° C. The dish was washed once with PBS. […] The dish was washed twice with PBS, and a 22×22 mm coverslip (VWR) was added with 350 μl of fluoromount G (Electron Microscopy Sciences). The neurons were visualized by use of a fluorescence microscope.
As described above, E13.5 DRGs were isolated and grown for 5 days in a Campenot chamber.

DRG explants = assay: pan-JNK inhibitors in DRG explants, NGF withdrawal assay; format: cell-based; conditions: anti-NGF plus inhibitor (FIG. 46)
Protocol: If DLK inhibition protects neurons from degeneration through limiting the phosphorylation of JNK2 and JNK3, then inhibitors of JNK2 or JNK3 should also protect neurons from cell death and axon degeneration. The ability of direct JNK inhibition to protect neurons against NGF withdrawal-dependent degeneration was also assessed. DRG explants were treated with anti-NGF and either pan-JNK inhibitor JNKV or JNKVIII, prior to assessment in the NGF withdrawal assay described above.

DRGs [2] = assay: anti-NGF antibody (NGF withdrawal) screen for inhibitors of neuron or axon degeneration; format: cell-based, mouse; conditions: inhibitor 100 μM or 10 μM added 1 hour before 25 μg/ml anti-NGF antibodies; 20 hours; actin staining
Protocol: The anti-NGF antibody model described above in Example 1 was used in a screen for inhibitors of neuron or axon degeneration. A library of more than 400 small molecules (Tocris Bioscience) was tested to see which, if any, modulate degeneration observed in the presence of anti-NGF antibodies.
Mouse E13.5 embryos were dissected and placed into L15 medium (Invitrogen). The spinal cord was dissected out from the embryos with DRGs attached. The spinal cords with DRGs attached were placed into L15 medium+5% goat serum (Gibco) on ice. The DRGs were removed using a tungsten needle and the remaining spinal cord was disposed of. Eight well slides were filled with N3-F12 solution (23 ml Ham's F12, 1 ml N3 supplement, and 1 ml 1 M glucose) to which was added 25 ng/ml NGF (Roche). (N3 supplement was made by dilution of N3 100× concentrate, which was made by mixing the following ingredients, in the following order: 5.0 ml Hank's buffered saline solution (HBSS; Ca, Mg free; Invitrogen), 1.0 ml bovine serum albumin (10 mg/ml in HBSS=150 μm), 2.0 ml Transferrin (T1147-1G, human, 100 mg/ml in HBSS=1.1 mM), 1.0 ml sodium selenite (S9133-1MG, 0.01 mg/ml in HBSS=58 μM), 0.4 ml putrescine dihydrochloride (P5780-5G, 80 mg/ml in HBSS=500 mM), 0.2 ml progesterone (P8783-5G, 0.125 mg/ml in absolute ethanol=400 μM), 0.02 ml corticosterone (C2505-500MG, 2 mg/ml in absolute ethanol=5.8 mM), 0.1 ml triiodothyonine, sodium salt (T6397-100MG, 0.2 mg/ml in 0.01 N NaOH=300 μM), 0.4 ml insulin (16634-250MG, bovine pancreas, 241 U/mg, 25 mg/ml in 20 mM HCl=4.4 mM), for a total volume of 10.02 ml (can be stored at −20° C.). An N3 supplement stock was made by combining the following: 10 ml Pen/Strep (100×, Gibco), 10 ml glutamine (200 mM, Gibco), 10 ml MEM vitamins (100×, Gibco), 10 ml N3 concentrate (100×, see above), for a total volume of 40 ml. The mixture was filter sterilized using a 0.22 μm filter, and 1-2 ml aliquots were stored at −20° C.).
The DRGs were sectioned into halves, and placed in the center of each well of an 8-chamber slide (BD Biocoat PDL/Laminin coated glass, Becton Dickinson). The DRGs were permitted to attach to the slide at room temperature for 5-10 minutes, followed by an overnight incubation at 37° C. Inhibitors of choice were added at a concentration of 100 μM (top row) or 10 μM (bottom row) 1 hour before adding anti-NGF antibodies. The anti-NGF antibodies were added to the right half of the slide (4 wells) at a concentration of 25 μg/ml. After incubation for 20 hours at 37° C., the slides were fixed with 30% sucrose/8% paraformaldehyde (PFA) by adding 250 μl of the fix solution directly to the 250 μl of culture medium. (To make the 30% sucrose/8% PFA solution, the following ingredients were added to a 600 ml beaker including a stir bar: 250 ml 16% PFA (cat#15710-S, Electron Microscopy Sciences), 50 ml 10×PBS pH 7.4, and 150 g sucrose. The solution was mixed under low heat until dissolved, and then 6-8 drops of 1 M NaOH were added to bring the pH to 7.4. The volume was then brought to 500 ml with water in a graduated cylinder. The solution was mixed well, placed in aliquots, and frozen.) The slides were fixed for 30 minutes, followed by washing once with PBS. All cells were labeled with an actin stain (Alexa-568 conjugated phalloidin; 1:40; Invitrogen), a membrane dye (DiO; 1:200; Invitrogen), and a DNA stain (Hoechst 33258; 1:10,000; Invitrogen) in 0.1% Triton and 1% goat serum for 2 hours at room temperature. […]

[3] = inhibitor 15 μM, listed as Act D

Cc1c2oc3c(C)ccc(C(=O)N[C@@H]4C(=O)N[C@H](C(C)C)C(=O)N5CCC[C@H]5C(=O)N(C)CC(=O)N(C)[C@@H](C(C)C)C(=O)O[C@@H]4C)c3nc-2c(C(=O)N[C@@H]2C(=O)N[C@H](C(C)C)C(=O)N3CCC[C@H]3C(=O)N(C)CC(=O)N(C)[C@@H](C(C)C)C(=O)O[C@@H]2C)c(N)c1=O [Actinomycin D] (I: T[dV]P[Sar][NMeV] / II: T[dV]P[Sar][NMeV]; ester I:1-I:C, II:1-II:C; linker I:N-II:N via Actinocin(9to1)) was tested, and the “formation of varicosities in locally NGF-deprived axons” value (DRGs [1]; cell body inhibitors added to cell body compartment: 30 μM SB415, 15 μM Act D) was “large number of axons with varicosities, as well as fragmented axons”, the “Axon Compartment (axon protected when inhibitor is in axon compartment)” value (DRGs [1]; inhibitor 15 μM) was “No (4)” and the “Cell Body Compartment (axon protected when inhibitor is in cell body compartment)” value (DRGs [1]; inhibitor 15 μM) was “Yes (4)”. For the same molecule, the “Axon Compartment (axon protected when inhibitor is in axon compartment)” value (DRGs [1]; [3]) was “failed to prevent degeneration” and the “Cell Body Compartment (axon protected when inhibitor is in cell body compartment)” value (DRGs [1]; [3]) was “did not degenerate; also recorded: protected from local degeneration”.
CCOc1nc(NC(=O)Cc2cc(OC)ccc2OC)cc(N)c1C#N [JNKVIII] was tested, and the most protective concentration (DRG explants) was 4 µM and the “protection of DRG explants from NGF-dependent degeneration” value (DRG explants) was “able to protect DRG explants from NGF-dependent degeneration”.
With C=C[C@@]1(C)CC(=O)[C@]2(O)[C@@]3(C)[C@@H](O)CCC(C)(C)[C@@H]3[C@H](O)[C@H](OC(C)=O)[C@@]2(C)O1 [Forskolin] the “Axon Compartment (axon protected when inhibitor is in axon compartment)” value (DRGs [1]; inhibitor 3 μM) was “Yes (2)” and the “Cell Body Compartment (axon protected when inhibitor is in cell body compartment)” value (DRGs [1]; inhibitor 3 μM) was “Yes (2)”.
For O=C1NC(=O)C(c2cn(CCCO)c3ncccc23)=C1c1cnccn1 [GSK3 inhibitor XI], the “Axon Compartment (axon protected when inhibitor is in axon compartment)” value (DRGs [1]; inhibitor 30 μM) was “No (2)” and the “Cell Body Compartment (axon protected when inhibitor is in cell body compartment)” value (DRGs [1]; inhibitor 30 μM) was “Yes (2)”.
For N#C/C(=C1/Nc2ccccc2S1)c1ccnc(NCCc2cccnc2)n1 [JNKV], the most protective concentration (DRG explants) was 5 µM and the “protection of DRG explants from NGF-dependent degeneration” value (DRG explants) was “able to protect DRG explants from NGF-dependent degeneration”.
With OC(CN1CCNCC1)Cn1c2ccc(Br)cc2c2cc(Br)ccc21 (centres unmarked) [Bax Channel Blocker] the “Comments (observations on protection against neurodegeneration upon NGF withdrawal)” value (“Comments” for short) (DRGs [2]) was “Cell bodies detach”.
CCN(c1ccccc1)c1cc(NC)[n+](C)c(C)n1.[Cl-] [ZD7288] was tested, and the “Axon Compartment (axon protected when inhibitor is in axon compartment)” value (DRGs [1]; inhibitor 5 μM) was “No (3)” and the “Cell Body Compartment (axon protected when inhibitor is in cell body compartment)” value (DRGs [1]; inhibitor 5 μM) was “Yes (3)”.
In the case of C[C@@H]1C[C@@H]([C@H](O)CC2CC(=O)NC(=O)C2)C(=O)[C@@H](C)C1 [Cycloheximide], the “Axon Compartment (axon protected when inhibitor is in axon compartment)” value (DRGs [1]; inhibitor 5 μM) is reported as “No (2)” and the “Cell Body Compartment (axon protected when inhibitor is in cell body compartment)” value (DRGs [1]; inhibitor 5 μM) is reported as “Yes (2)”.
In the case of CC(NC(=O)/C(C#N)=C/c1ccc(O)c(O)c1)c1ccccc1 (centres unmarked) [Tyrphostin B44], the “Comments” value (DRGs [2]) is reported as “Partial”.
For C[S+]([O-])c1ccc(-c2nc(-c3ccc(F)cc3)c(-c3ccncc3)[nH]2)cc1.Cl (centres unmarked) [SB 203580 HCI], the “Comments” value (DRGs [2]) was “Partial”.
In the case of C=C[C@@]1(C)CC(=O)[C@]2(O)[C@@]3(C)[C@@H](O)CCC(C)(C)[C@@H]3[C@H](OC(=O)CCN(C)C)[C@H](OC(C)=O)[C@@]2(C)O1 [NKH 477], the “Comments” value (DRGs [2]) is reported as “Partial”.
With COc1ccc(CNC(=O)Nc2ncc([N+](=O)[O-])s2)cc1 [AR-A014418] the “Axon Compartment (axon protected when inhibitor is in axon compartment)” value (DRGs [1]; inhibitor 20 μM) was “No (1)” and the “Cell Body Compartment (axon protected when inhibitor is in cell body compartment)” value (DRGs [1]; inhibitor 20 μM) was “Yes (1)”.

Source: patent publication US20160279190A1, “MODULATION OF AXON DEGENERATION” (GENENTECH, INC., priority 2008, published 2016)
